One assay relates to NMRI-mice. In words: Acceleration of gastric emptying and small intestinal propulsion in NMRI-mice. The assay is classed as in vivo. The note with it: Mus musculus, sc. The method, then:
Male NMRI-mice weighing around 25 gram were fasted for 20 h and had free access to drinking water. Test compounds were administered to the animals by subcutaneous route 30 min before they were given a test meal by oral gavage. The test meal consisted of 0.3 ml of a chocolate nutridrink solution (1.0 kcal/ml) containing phenol red marker (5 mg/ml). Fifteen min after administration of the meal, the mice were sacrificed by CO2 gas inhalation. The phenol red content remaining in the stomach (extracted from the stomach with NaOH) was determined at 557 nm in a spectrophotometer and expressed as extinction units. Small intestinal propulsion was determined as the distance traveled by the phenol red marker through the intestine and expressed as a percentage of total small intestinal length (from the pylorus to the ileo-cecal junction).
The lowest dose that was active for each parameter was noted as the lowest active dose (LAD). Table 12 discloses LAD values.

The next assay addresses T1, GHS1A-receptor (Homo sapiens, UniProt Q92847).
T1 construct: expressed in transfected cells; host or cells: HEK293
The experiment in a line: Ghrelin-agonism in HEK293 cells (intracellular calcium, FLIPR). It counts as cell-based. The note with it: calcium fluorescence (fluo-4 or Kit-3), EC50 in M; for EC50: HEK293 cells permanently transfected with GHS1A-receptor, read-out: pEC50 (converted). The method, then: One day before the experiment, HEK293 cells, permanently transfected with the gene sequence for expression of the GHS1A-receptor, were seeded in poly-D-Lysine coated 96-well plates with clear bottom, and allowed to grow to […] of confluence on the next day.
Then, cells were incubated with the calcium-sensitive intracellular fluorescent probe fluo-4 or Kit-3 for 1 h at 37° C. Fluorescence representing free intracellular calcium in the cells was measured in a FLIPR-system (excitation at 488 nm, emission>520 nm). Test compounds were added to each well at the desired concentration and the fluorescence signal was simultaneously recorded in all wells. Release of intracellular calcium triggered by activation of the receptors upon addition of the test compound was measured as the fluorescence emitted from the complex of calcium and the fluorescent probe. The drug effect on fluorescence intensity was expressed relative to the maximal fluorescence intensity measured in cells exposed to the calcium-ionophore ionomycin.

Where [1] appears, read: lowest active dose, subcutaneous, 30 min before phenol red test meal, active when >60% of animals had phenol red front beyond 85% of small intestinal length, read-out: LAD (mg/kg) Small intestinal propulsion.
[2] abbreviates: lowest active dose, subcutaneous, 30 min before phenol red test meal, stomach content 15 min after meal, active when >60% of animals below 0.9 extinction units, read-out: LAD (mg/kg) Gastric emptying.

pEC50: −log10 of the molar value. Structures can show the parent of a compound that is named as a salt. Where two headings read alike, the source gives them in different places.

T1 sequence (Q92847 whole entry): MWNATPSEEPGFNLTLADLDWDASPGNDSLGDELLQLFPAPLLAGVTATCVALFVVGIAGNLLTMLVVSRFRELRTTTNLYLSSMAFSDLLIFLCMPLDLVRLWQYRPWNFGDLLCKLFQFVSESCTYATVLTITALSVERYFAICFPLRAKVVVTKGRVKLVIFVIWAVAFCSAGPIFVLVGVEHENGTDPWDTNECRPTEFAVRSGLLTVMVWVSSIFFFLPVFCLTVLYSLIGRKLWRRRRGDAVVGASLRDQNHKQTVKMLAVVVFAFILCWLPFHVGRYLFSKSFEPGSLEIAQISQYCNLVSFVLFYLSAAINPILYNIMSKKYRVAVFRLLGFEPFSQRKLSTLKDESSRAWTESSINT

In the case of `CNCCCC1(O)c2ccccc2CCCC1c1cccc(Cl)c1` (racemic) [Compound 39], the minimal effective dose in the assay with NMRI-mice (setting [1]) and with NMRI-mice (setting [2]) was over 10 mg/kg each time. Also, the EC50 on GHS1A-receptor was 50.1 nM.
With `CN(C)CCCC1(O)c2ccccc2OCCC1c1ccc(F)c(F)c1` (racemic) [Compound 95], the minimal effective dose in the assay with NMRI-mice (setting [1]) and in the assay on NMRI-mice (setting [2]) was over 10 mg/kg each time. On GHS1A-receptor, the EC50 is 50.1 nM.
Regarding `CC(C)NCCCC1(O)c2ccccc2CCCC1c1cncc(Cl)c1` (racemic) [Compound 82], the minimal effective dose in the assay on NMRI-mice (setting [1]) and in the assay on NMRI-mice (setting [2]) was over 10 mg/kg in each case. The EC50 on GHS1A-receptor is 251 nM.
Regarding `CCN(CC)CCCC1(O)c2ccccc2OCCC1c1ccc(Cl)c(OC)c1` (racemic) [Compound 98], the minimal effective dose with NMRI-mice (setting [1]) and in the assay with NMRI-mice (setting [2]) was 10 mg/kg in each case. In addition, at GHS1A-receptor, the EC50 is 10 nM.
On to `OC1(CCCN2CCCC2)c2ccccc2CCCC1c1ccccc1` (racemic) [Compound 21], for which the minimal effective dose with NMRI-mice (setting [1]) and in the assay with NMRI-mice (setting [2]) was over 10 mg/kg in each case. Also, the EC50 at GHS1A-receptor is 79.4 nM.
For the molecule `CCN(CC)CCCC1(O)c2ccccc2CCCC1c1ccc(OC)c(OC)c1` (racemic) [Compound 78], the minimal effective dose with NMRI-mice (setting [1]) and in the assay on NMRI-mice (setting [2]) was over 10 mg/kg in each case. Moreover, the EC50 on GHS1A-receptor is 398 nM.
In the case of `CCN(CC)CCCC1(O)c2ccccc2CCCC1c1ccc(Cl)cc1` (racemic) [Compound 46], the minimal effective dose in the assay on NMRI-mice (setting [1]) and in the assay on NMRI-mice (setting [2]) was 10 mg/kg in each case. On GHS1A-receptor, the EC50 was 200 nM.
`CN(C)CCCC1(O)c2ccccc2CCCC1c1cncc(Cl)c1` (racemic) [Compound 81]: the minimal effective dose with NMRI-mice (setting [1]) and in the assay on NMRI-mice (setting [2]) was over 10 mg/kg in each case. In addition, the EC50 on GHS1A-receptor was 50.1 nM.
With `CCN(CC)CCCC1(O)c2ccccc2CCCC1c1ccc(Cl)c(OC)c1` (racemic) [Compound 74], the minimal effective dose with NMRI-mice (setting [1]) and in the assay on NMRI-mice (setting [2]) was over 40 mg/kg throughout. The EC50 at GHS1A-receptor is 5.01 nM.
In the case of `CNCCCC1(O)c2ccccc2CCCC1c1ccc(Cl)cc1` (racemic) [Compound 43], the minimal effective dose in the assay with NMRI-mice (setting [1]) and in the assay with NMRI-mice (setting [2]) was over 10 mg/kg throughout. Moreover, at GHS1A-receptor, the EC50 was 126 nM.
Consider `COc1ccc(C2CCOc3ccccc3C2(O)CCCN(C)C)cn1` (racemic) [Compound 102], for which the minimal effective dose in the assay on NMRI-mice (setting [1]) and in the assay on NMRI-mice (setting [2]) was over 10 mg/kg in each case. Also, at GHS1A-receptor, the EC50 is 7940 nM.
Consider `Cc1ccc([C@H]2CCCc3ccccc3[C@]2(O)CCCN(C)C)cn1` [Compound 12], for which the minimal effective dose with NMRI-mice (setting [1]) and with NMRI-mice (setting [2]) was over 10 mg/kg each time. In addition, the EC50 on GHS1A-receptor is 251 nM.
For the molecule `CN(C)CCCC1(O)c2ccccc2CCCC1c1ccc(F)cc1F` (racemic) [Compound 56], the results for the minimal effective dose in the assay on NMRI-mice (setting [1]) and in the assay on NMRI-mice (setting [2]) were over 10 mg/kg and 10 mg/kg, respectively. Moreover, the EC50 on GHS1A-receptor was 25.1 nM.
For the molecule `Cc1ccc(C2CCOc3ccccc3C2(O)CCCN(C)C)cn1` (racemic) [Compound 99], the minimal effective dose in the assay with NMRI-mice (setting [1]) is over 10 mg/kg; with NMRI-mice (setting [2]), 10 mg/kg. The EC50 at GHS1A-receptor was 794 nM.
In the same order, the values of `CC(=O)N1CCN(CCCC2(O)c3ccccc3CCCC2c2ccc(F)cc2F)CC1` (racemic) [Compound 60] are 10 mg/kg, over 10 mg/kg and 3980 nM.
Turning to `CN(C)CCCC1(O)c2ccccc2CCCC1c1ccc(O)cc1` (racemic) [Compound 35], the minimal effective dose in the assay on NMRI-mice (setting [1]) and with NMRI-mice (setting [2]) was over 10 mg/kg each time. In addition, the EC50 on GHS1A-receptor was 2000 nM.
For the molecule `CNCCCC1(O)c2ccccc2CCCC1c1ccccc1` (racemic) [Compound 19], the minimal effective dose in the assay on NMRI-mice (setting [1]) and in the assay on NMRI-mice (setting [2]) was over 10 mg/kg in each case. The EC50 on GHS1A-receptor was 200 nM.
For the molecule `CN(C)CCCC1(O)c2ccccc2OCCC1c1ccc(Cl)cc1` (racemic) [Compound 94], the minimal effective dose in the assay with NMRI-mice (setting [1]) was 2.5 mg/kg; in the assay on NMRI-mice (setting [2]) it was 10 mg/kg. At GHS1A-receptor, the EC50 was 31.6 nM.
In the same order, the values of `COCCN(C)CCCC1(O)c2ccccc2CCCC1c1ccc(C)cc1` (racemic) [Compound 30] are over 10 mg/kg, 10 mg/kg and 79.4 nM.
Regarding `CCN(CC)CCCC1(O)c2ccccc2OCCC1c1ccc(C)cc1` (racemic) [Compound 93], the minimal effective dose was 10 mg/kg in the assay with NMRI-mice (setting [1]) and over 10 mg/kg in the assay with NMRI-mice (setting [2]). Moreover, on GHS1A-receptor, the EC50 was 63.1 nM.
Usually pEC50 stands for the EC50 on a negative log10 scale, so that one unit is a factor of ten. For the molecule `COc1cccc([C@H]2CCCc3ccccc3[C@]2(O)CCCN(C)C)c1` (racemic) [Compound 14, (±)cis-5-(3-Dimethylamino-propyl)-6-(3-methoxy-phenyl)-6,7,8,9-tetrahydro-5H-benzocyclohepten-5-ol oxalate], the minimal effective dose is 10 mg/kg in the assay on NMRI-mice (read-out: LAD (mg/kg) Gastric emptying) and over 10 mg/kg in the assay on NMRI-mice (read-out: LAD (mg/kg) Small intestinal propulsion). For the same molecule, on GHS1A-receptor (pEC50, HEK293 cells permanently transfected with GHS1A-receptor), the pEC50 was 7.90.
On to `CN(C)CCCC1(O)c2ccccc2CCCC1c1ccc2c(c1)OCO2` (racemic) [Compound 88], for which the minimal effective dose in the assay on NMRI-mice (setting [1]) and with NMRI-mice (setting [2]) was over 10 mg/kg throughout. Also, the EC50 on GHS1A-receptor is 63.1 nM.
`COc1ccc(C2CCCc3ccccc3C2(O)CCCN(C)C)cc1` (racemic) [Compound 66]: the figures for the minimal effective dose with NMRI-mice (setting [1]) and in the assay on NMRI-mice (setting [2]) were 10 mg/kg and over 10 mg/kg, respectively. Moreover, the EC50 at GHS1A-receptor is 251 nM.
The matching figures for `CN(C)CCCC1(O)c2ccccc2CCCC1c1ccc(Br)cc1` (racemic) [Compound 38]: over 10 mg/kg, over 10 mg/kg and 25.1 nM.
In the same order, the values of `CNCCCC1(O)c2ccccc2CCCC1c1ccc(C)cc1` (racemic) [Compound 27] are over 10 mg/kg, over 10 mg/kg and 79.4 nM.
As to `CNCCCC1(O)c2ccccc2CCCC1c1cccc(C)c1` (racemic) [Compound 22], the minimal effective dose in the assay with NMRI-mice (setting [1]) and with NMRI-mice (setting [2]) was over 10 mg/kg each time. The EC50 on GHS1A-receptor was 39.8 nM.
With `CN(C)CCC[C@@]1(O)c2ccccc2CCC[C@@H]1c1ccc(Cl)cc1` (racemic) [Compound 1], the minimal effective dose in the assay on NMRI-mice (setting [1]) and with NMRI-mice (setting [2]) was 2.5 mg/kg each time. For the same molecule, the EC50 on GHS1A-receptor was 39.8 nM.
For the molecule `COc1cncc(C2CCCc3ccccc3C2(O)CCCN(C)C)c1` (racemic) [Compound 83], the minimal effective dose with NMRI-mice (setting [1]) and in the assay on NMRI-mice (setting [2]) was over 10 mg/kg throughout. For the same molecule, the EC50 at GHS1A-receptor was 631 nM.
As to `COc1ccccc1C1CCOc2ccccc2C1(O)CCCN(C)C` (racemic) [Compound 96], the minimal effective dose in the assay on NMRI-mice (setting [1]) and in the assay with NMRI-mice (setting [2]) was over 10 mg/kg each time. Besides, the EC50 on GHS1A-receptor was 2000 nM.
In the case of `CCN(CC)CCCC1(O)c2ccccc2CCCC1c1ccc(F)cc1F` (racemic) [Compound 57], the minimal effective dose in the assay on NMRI-mice (setting [1]) and with NMRI-mice (setting [2]) was 10 mg/kg in each case. Besides, the EC50 at GHS1A-receptor is 31.6 nM.
`Cc1ccc([C@H]2CCCc3ccccc3[C@]2(O)CCCN(C)C)cn1` (racemic) [Compound 16, (±)cis-5-(3-Dimethylamino-propyl)-6-(6-methyl-pyridin-3-yl)-6,7,8,9-tetrahydro-5H-benzocyclohepten-5-ol hydrochloride]: the minimal effective dose was over 10 mg/kg with NMRI-mice (setting [1]) and 10 mg/kg with NMRI-mice (setting [2]). The EC50 on GHS1A-receptor was 251 nM.
For the molecule `Cc1ccc(C2CCCc3ccccc3C2(O)CCCN(C)C)cc1` (racemic) [Compound 29], the minimal effective dose in the assay with NMRI-mice (setting [1]) and in the assay with NMRI-mice (setting [2]) was 10 mg/kg throughout. Also, on GHS1A-receptor, the EC50 was 15.8 nM.
Regarding `COCCN(C)CCCC1(O)c2ccccc2CCCC1c1ccc(F)cc1` (racemic) [Compound 54], the minimal effective dose in the assay with NMRI-mice (setting [1]) and in the assay with NMRI-mice (setting [2]) was over 40 mg/kg each time. Besides, the EC50 on GHS1A-receptor is 63.1 nM.
As to `CCN(CC)CCCC1(O)c2ccccc2CCCC1c1cccc(Cl)c1` (racemic) [Compound 41], the minimal effective dose in the assay on NMRI-mice (setting [1]) and in the assay with NMRI-mice (setting [2]) was over 10 mg/kg throughout. Besides, the EC50 at GHS1A-receptor was 7.94 nM.
With `CCN(CC)CCCC1(O)c2ccccc2CCCC1c1ccc(F)cc1` (racemic) [Compound 53], the minimal effective dose with NMRI-mice (setting [1]) and in the assay on NMRI-mice (setting [2]) was over 10 mg/kg in each case. In addition, on GHS1A-receptor, the EC50 was 20 nM.
On to `COCCN(C)CCCC1(O)c2ccccc2CCCC1c1ccc(F)cc1F` (racemic) [Compound 58], for which the minimal effective dose with NMRI-mice (setting [1]) and with NMRI-mice (setting [2]) was over 10 mg/kg each time. For the same molecule, the EC50 on GHS1A-receptor was 126 nM.

Values taken from patent US9040725B2, “Benzocycloheptane and benzoxepine derivatives” (Janssen Pharmaceutica NV, priority 2008, dated 2015).
